Laboratory results published in paper PMC4442108, “Preclinical Validation of the Heparin-Reactive Peptide p5+14 as a Molecular Imaging Agent for Visceral Amyloidosis” (Molecules, 2015).
Where no end group is shown, it is not given here. [ ]: non-standard residue; d: D form. Tyr(3-I) = N[C@@H](Cc1ccc(O)c(I)c1)C(=O)O

Tests used:
[1] = system: human AL amyloid extracts; assay: Peptide ex vivo amyloid binding assay (pull-down), AL extracts; conditions: for % Bound (mean ± SD): 1 h incubation, PBST, RT, N = 2
Procedure: Human amyloid tissue extracts were prepared using the water flotation method as described by Pras et al. without modification. Purified amyloid material isolated in the water wash was collected and lyophilized before use.
Twenty-five microliters of 1 mg/mL AL extract, or synthetic rVλ6Wil variable domain fibrils were centrifuged in a 0.5 mL microfuge tube at 21,000× g for 5 min. The supernatant was discarded and pellet resuspended in 200 µL of PBS with 0.05% Tween-20 (PBST). Ten microliters of a 1:100 dilution of ^125I-p5+14 (~100,000 counts per minute (CPM); ~5 ng peptide) stock was added to the suspension. The mixture was rotated at RT for 1 h. Samples were then centrifuged twice at 15,000× g for 10 min. Supernatants and pellets were separated after each step and the radioactivity in each was measured using a Cobra II gamma counter (Perkin Elmer) with a 1 min acquisition. The percentage of ^125I-p5+14 bound to pellet was determined as follows: % Bound = Pellet CPM/(Pellet CPM + Supernatant CPM) × 100

[2] = biological target: T1, human ATTR amyloid extract (Homo sapiens, UniProt P02766); assay: Peptide ex vivo amyloid binding assay (pull-down), ATTR extract; conditions: ATTR heart extract; ~5 ng 125I-p5+14, 25 µL of 1 mg/mL extract, PBST, 1 h RT, pellet vs supernatant CPM; N = 2
T1 construct: as well as one cardiac ATTR extract, were analyzed in this assay; from tissue; host or cells: human heart, water flotation extract

GGG[Tyr(3-I)]SKAQKAQAKQAKQAQKAQKAQAKQAKQAQKAQKAQAKQAKQ [125I-p5+14]
median % bound amongst the test samples ([1]; across the human AL and ATTR amyloid extracts of Table 3): 92% | % Bound (mean ± SD) ([1]; κ1 AL08 liver extract): 96.35 ± 0.47% | % Bound (mean ± SD) ([1]; κ4 AL01 spleen extract): 97.00 ± 0.11% | % Bound (mean ± SD) ([1]; λ1 AL03 liver extract): 91.16 ± 0.87% | % Bound (mean ± SD) ([1]; λ1 AL07 liver extract): 51.81 ± 0.25% | % Bound (mean ± SD) ([1]; λ2 AL02 liver extract): 92.95 ± 0.31% | % Bound (mean ± SD) ([1]; λ2 AL02 spleen extract): 96.76 ± 3.65% | % Bound (mean ± SD) ([1]; λ2 AL06 liver extract): 89.66 ± 0.91% | % Bound (mean ± SD) ([1]; λ2 AL06 spleen extract): 97.11 ± 0.05% | % Bound (mean ± SD) ([1]; λ2 AL09 liver extract): 84.99 ± 0.14% | % Bound (mean ± SD) ([1]; λ3 AL04 liver extract): 88.44 ± 0.25% | % Bound (mean ± SD) ([1]; λ3 AL04 spleen extract): 92.29 ± 0.30% | % Bound (mean ± SD) ([1]; λ4 AL05 spleen extract): 95.44 ± 0.03% | % Bound (mean ± SD) [2]: 79.93 ± 1.23%
